Test results as given in US20130216579A1, “METHODS AND COMPOSTITIONS FOR GENE EDITING OF A PATHOGEN” (priority 2012, published 2013).

Columns and labels:
[1] = tested on: GC03^crt-Dd2 G9 and GC03^crt-Dd2 H6 parasite clones; test: In vitro CQ IC50 of pfcrt allelic replacement clones vs GC03 parent; type: cell-based, P. falciparum
Description: To quantify the efficiency of pfcrt allelic replacement, clones were generated by limiting dilution and analyzed by PCR. We observed replacement events in 13/82 (15.9%) 106/1 clones and 4/83 (4.8%) GC03 clones (FIG. 3B).
(§1) We also confirmed the CQ resistance phenotype of two gene-edited lines, 106/1^13/15mut2 and 106/1^14/15mut1 (FIG. 4A). […] Parasitemia was determined by flow cytometry after a 72 h incubation with drug. Parasites were stained with 1.6 μM Mito Tracker® (Molecular probes, Invitrogen) and 2×Sybr® Green (Molecular probes, Invitrogen) in 1×PBS supplemented with 5% FBS as described. In vitro IC50 values were calculated by non-linear regression analysis and Mann-Whitney U tests were employed for statistical analysis.

CQS strain 106/1 = test: CQ exposure of non-transfected 106/1 cultures; type: cell-based, P. falciparum; details: 33 nM CQ, six independent non-transfected 106/1 cultures
[2] = tested on: 106/1^13/15mut2 and 106/1^14/15mut1 parasite lines; test: In vitro CQ IC50 of gene-edited 106/1 lines, parasitemia by flow cytometry after 72 h; type: cell-based, P. falciparum; details: lines 106/1^13/15mut2 and 106/1^14/15mut1, 72 h
Description: as §1

[3] = tested on: ZFN 30414 (synthetic construct); test: cell_activity; details: pair with 30415; K76I conversion 38/38, 28/28 and 31/31 in 106/1 with CQ selection; 10/40 clones in Dd2 without selection
[4] = tested on: ZFN 30413 (synthetic construct); test: cell_activity; details: pair with 30415; K76I conversion 29/29 and 25/25 in 106/1 with CQ selection; 2/36 clones in Dd2 without selection

In the case of `CCN(CC)CCCC(C)Nc1ccnc2cc(Cl)ccc12` (centres unmarked) [CQ, chloroquine], the “shift in CQ IC50 values compared to the GC03 parent” value [1] is reported as 4- to 5 fold, the “parasite outcome under CQ exposure” value (CQS strain 106/1) is reported as “yielded no parasites after 90 days” and the “shift in CQ IC50 values relative to the unmodified 106/1 parent line” value [2] is reported as 5-6 fold.
“CTGTTAAGGTCGACAAGGGAAAAAAAAA (double strand) [pfcrt 30414 target site]” was tested, and the activity [3] was 100%.
Compound “CTGTTAAGGTCGACAAGGGAAAAAAAAA (double strand) [pfcrt 30413 target site]” has an activity [4] of 100%.
